According to paper PMC8227400, “Novel N-Arylsulfonylindoles Targeted as Ligands of the 5-HT6 Receptor. Insights on the Influence of C-5 Substitution on Ligand Affinity” (Pharmaceuticals, 2021):

System: not given
Settings: not given

Compared with `COc1ccccc1N1CCN(CC(O)c2cn(S(=O)(=O)c3ccc(I)cc3)c3ccc(F)cc23)CC1` (centres unmarked) [4a, 1-(5-fluoro-1-((4-iodophenyl)sulfonyl)-1H-indol-3-yl)-2-(4-(2-methoxyphenyl)piperazin-1-yl) ethan-1-ol], `COc1ccc2c(c1)c(C(O)CN1CCN(c3ccccc3OC)CC1)cn2S(=O)(=O)c1ccc(I)cc1` (centres unmarked) [4j, 1-(1-((4-iodophenyl)sulfonyl)-5-methoxy-1H-indol-3-yl)-2-(4-(2-methoxyphenyl)piperazin-1-yl)ethan-1-ol] is higher in melting point: 94.5 to 96.4 °C for the first, 101 to 104 °C for the second.

Compared with `O=S(=O)(c1ccc(I)cc1)n1cc(C(O)CN2CCN(c3ccccn3)CC2)c2cc(F)ccc21` (centres unmarked) [4b, 1-(5-fluoro-1-((4-iodophenyl)sulfonyl)-1H-indol-3-yl)-2-(4-(pyridin-2-yl)piperazin-1-yl)ethan-1-ol], `O=S(=O)(c1cccc2ccccc12)n1cc(C(O)CN2CCN(c3ccccn3)CC2)c2cc(F)ccc21` (centres unmarked) [4e, 1-(5-fluoro-1-(naphthalen-1-ylsulfonyl)-1H-indol-3-yl)-2-(4-(pyridin-2-yl)piperazin-1-yl)ethan-1-ol] is lower in melting point: 135 to 137 °C for the first, 112 to 114 °C for the second.

First: COc1ccccc1N1CCN(CC(O)c2cn(S(=O)(=O)c3cccc4ccccc34)c3ccc(F)cc23)CC1 (centres unmarked) [4d, 1-(5-fluoro-1-(naphthalen-1-ylsulfonyl)-1H-indol-3-yl)-2-(4-(2-methoxyphenyl)piperazin-1-yl)ethan-1-ol]
Second: COc1ccc2c(c1)c(C(O)CN1CCN(c3ccccc3OC)CC1)cn2S(=O)(=O)c1cccc2ccccc12 (centres unmarked) [4l, 1-(5-methoxy-1-(naphthalen-1-ylsulfonyl)-1H-indol-3-yl)-2-(4-(2-methoxyphenyl)piperazin-1-yl)ethan-1-ol]
The melting point of the first is higher: 181.1 to 183.2 °C for the first, 105 to 107 °C for the second.

Compared with `O=S(=O)(c1cccc2ccccc12)n1cc(C(O)CN2CCOCC2)c2cc(F)ccc21` (centres unmarked) [4f, 1-(5-fluoro-1-(naphthalen-1-ylsulfonyl)-1H-indol-3-yl)-2-morpholinoethan-1-ol], `COc1ccc2c(c1)c(C(O)CN1CCOCC1)cn2S(=O)(=O)c1cccc2ccccc12` (centres unmarked) [4m, 1-(5-methoxy-1-(naphthalen-1-ylsulfonyl)-1H-indol-3-yl)-2-morpholinoethan-1-ol] is higher in melting point: 164.1 to 165.8 °C for the first, 190 to 192 °C for the second.

First: O=S(=O)(c1cccc2ccccc12)n1cc(C(O)CN2CCN(c3ncccn3)CC2)c2cc(F)ccc21 (centres unmarked) [4g, 1-(5-fluoro-1-(naphthalen-1-ylsulfonyl)-1H-indol-3-yl)-2-(4-(pyrimidin-2-yl)piperazin-1-yl)ethan-1-ol]
Second: COc1ccc2c(c1)c(C(O)CN1CCOCC1)cn2S(=O)(=O)c1ccc(I)cc1 (centres unmarked) [4k, 1-(1-((4-iodophenyl)sulfonyl)-5-methoxy-1H-indol-3-yl)-2-morpholinoethan-1-ol]
The melting point of the first is lower: 100 to 103 °C for the first, 120 to 124 °C for the second.

Target: 5-HT6 receptor
Settings: cited from earlier work

In the case of `COc1ccc2c(c1)c(CCN(C)C)cn2S(=O)(=O)c1ccccc1` [MS-245], the Ki is listed as 2.3 nM.
